# According to patent US4436751A, “Nitrobenzyl monates antibacterial compounds” (Beecham Group Limited, priority 1980, dated 1984):
# Key:
# Format in all cases: cell-based
# [1] = tested on: M. gallisepticum S6; assay: Anti-mycoplasmal MIC in vitro, Friis broth agarose (Table 1); settings: Mycoplasmoides gallisepticum, 144 h; M. gallisepticum S6; in vitro, 6 days 37° C.; read-out: MIC
# [2] = tested on: M. suipneumoniae MS 16; assay: as above; settings: Mesomycoplasma hyopneumoniae, MS16, 144 h
# [3] = tested on: M. suipneumoniae NB12; assay: as above; settings: Mesomycoplasma hyopneumoniae, NB12, 144 h
# [4] = tested on: P. mirabilis 889; assay: Human bacteria MIC, nutrient agar with chocolated horse blood (Table 3); settings: Proteus mirabilis; P. mirabilis 889; nutrient agar 5% chocolated horse blood, 18 hours 37° C.; read-out: MIC
# Experimental: (§1) The values were determined by serial dilutions in nutrient agar with 5% chocolated horse blood after incubations for 18 hours at 37° C.
# [5] = tested on: Staph. aureus Oxford; assay: as above; settings: Staphylococcus aureus; Staph. aureus Oxford; nutrient agar 5% chocolated horse blood, 18 hours 37° C.; read-out: MIC
# Experimental: as §1
# [6] = tested on: Strep. faecalis 1; assay: as above; settings: Enterococcus faecalis; Strep. faecalis 1; nutrient agar 5% chocolated horse blood, 18 hours 37° C.; read-out: MIC
# Experimental: as §1
# [7] = tested on: Strep. pyogenes R80/421-A; assay: as above; settings: Streptococcus pyogenes; Strep. pyogenes R80/421-A; nutrient agar 5% chocolated horse blood, 18 hours 37° C.; read-out: MIC
# Experimental: as §1
# [8] = tested on: Ps. aeruginosa NCTC 10662; assay: as above; settings: Pseudomonas aeruginosa, NCTC10662; Ps. aeruginosa NCTC 10662; nutrient agar 5% chocolated horse blood, 18 hours 37° C.; read-out: MIC
# Experimental: as §1
# [9] = tested on: Sarcina lutea 8340; assay: as above; settings: Micrococcus luteus; Sarcina lutea 8340; nutrient agar 5% chocolated horse blood, 18 hours 37° C.; read-out: MIC
# Experimental: as §1
# [10] = tested on: Corynebacterium xerosis 9755; assay: as above; settings: Corynebacterium xerosis 9755; nutrient agar 5% chocolated horse blood, 18 hours 37° C.; read-out: MIC
# Experimental: as §1
# [11] = tested on: Staph. aureus W2827; assay: as above; settings: Staphylococcus aureus; Staph. aureus W2827; nutrient agar 5% chocolated horse blood, 18 hours 37° C.; read-out: MIC
# Experimental: as §1
# [12] = tested on: Haemophilus influenzae Q1; assay: as above; settings: Haemophilus influenzae Q1; nutrient agar 5% chocolated horse blood, 18 hours 37° C.; read-out: MIC
# Experimental: as §1
# [13] = tested on: E. Coli NCTC 10418; assay: as above; settings: Escherichia coli, NCTC10418; E. coli NCTC 10418; nutrient agar 5% chocolated horse blood, 18 hours 37° C.; read-out: MIC
# Experimental: as §1
# [14] = tested on: Bacillus subtilis 6633; assay: as above; settings: Bacillus subtilis 6633; nutrient agar 5% chocolated horse blood, 18 hours 37° C.; read-out: MIC
# Experimental: as §1
# [15] = tested on: K. aerogenes A; assay: as above; settings: Klebsiella aerogenes; K. aerogenes A; nutrient agar 5% chocolated horse blood, 18 hours 37° C.; read-out: MIC
# Experimental: as §1
# [16] = tested on: Pasteurella multocida 1633; assay: as above; settings: Pasteurella multocida 1633; nutrient agar 5% chocolated horse blood, 18 hours 37° C.; read-out: MIC
# Experimental: as §1
# [17] = tested on: Staph. aureus Russell; assay: as above; settings: Staphylococcus aureus; Staph. aureus Russell; nutrient agar 5% chocolated horse blood, 18 hours 37° C.; read-out: MIC
# Experimental: as §1
# [18] = tested on: M. hyosynoviae ATOC 25591; assay: Anti-mycoplasmal MIC in vitro, Friis broth agarose (Table 1); settings: 144 h; M. hyosynoviae ATOC 25591; in vitro, 6 days 37° C.; read-out: MIC
# [19] = tested on: M. hyorhinis ATCC 25021; assay: as above; settings: Mesomycoplasma hyorhinis, ATCC25021, 144 h
# [20] = tested on: M. suipneumoniae LABER; assay: as above; settings: Mesomycoplasma hyopneumoniae, 144 h
# [21] = tested on: M. suipneumoniae TAM 6N; assay: as above; settings: Mesomycoplasma hyopneumoniae, TAM6N, 144 h; M. suipneumoniae TAM 6N; in vitro, 6 days 37° C.; read-out: MIC
# [22] = tested on: M. suipneumoniae ATCC 25095; assay: as above; settings: Mesomycoplasma hyopneumoniae, ATCC25095, 144 h
# [23] = tested on: Erysipelothrix rhusiopathiae NCTC 8163; assay: Veterinary bacteria MIC, Diagnostic Sensitivity Test Agar (Table 2); settings: NCTC8163; Erysipelothrix rhusiopathiae NCTC 8163; DST Agar, 10^4 organisms, 18 hours 37° C.; read-out: MIC
# Experimental: (§2) The values were determined using a two fold serial dilutions in Diagnostic Sensitivity Test Agar with an inoculum of 10^4 organisms and incubation for 18 hours at 37° C.
# [24] = tested on: Past. multocida PA1; assay: as above; settings: Pasteurella multocida; Past. multocida PA1; DST Agar, 10^4 organisms, 18 hours 37° C.; read-out: MIC
# Experimental: as §2
# [25] = tested on: Past. multocida PA2; assay: as above; settings: Pasteurella multocida; Past. multocida PA2; DST Agar, 10^4 organisms, 18 hours 37° C.; read-out: MIC
# Experimental: as §2
# [26] = tested on: Strep. uberis SPO1; assay: as above; settings: Streptococcus uberis; Strep. uberis SPO1; DST Agar, 10^4 organisms, 18 hours 37° C.; read-out: MIC
# Experimental: as §2
# [27] = tested on: Strep. suis (group D) SPS11; assay: as above; settings: Streptococcus suis; Strep. suis (group D) SPS11; DST Agar, 10^4 organisms, 18 hours 37° C.; read-out: MIC
# Experimental: as §2
compound,measurement,setting,value
"C/C(=C\C(=O)OC(C)c1ccc([N+](=O)[O-])cc1)CC1OCC(CC2OC2C(C)C(C)O)C(O)C1O (stereo not drawn) [Example 4, 1-(p-nitrophenyl)ethyl monate A]",MIC,[1],> 10 µg/mL
same,MIC,[2],1 µg/mL
same,MIC,[3],1 µg/mL
same,MIC,[4],> 100 µg/mL
same,MIC,[5],2.5 µg/mL
same,MIC,[6],> 100 µg/mL
same,MIC,[7],1 µg/mL
same,MIC,[8],> 100 µg/mL
same,MIC,[9],> 100 µg/mL
same,MIC,[10],> 100 µg/mL
same,MIC,[11],2.5 µg/mL
same,MIC,[12],1 µg/mL
same,MIC,[13],> 100 µg/mL
same,MIC,[14],1 µg/mL
same,MIC,[15],> 100 µg/mL
same,MIC,[16],10 µg/mL
same,MIC,[17],2.5 µg/mL
same,MIC,[18],0.1 µg/mL
same,MIC,[19],0.5 µg/mL
same,MIC,[20],1 µg/mL
same,MIC,[21],2.5 µg/mL
same,MIC,[22],1 µg/mL
same,MIC,[23],40 µg/mL
same,MIC,[24],5 µg/mL
same,MIC,[25],2.5 µg/mL
same,MIC,[26],0.312 µg/mL
same,MIC,[27],20 µg/mL
